Residue numbers refer to the chain shown, from its start. Where two headings read alike, the source gives them in different places.
Assays:
[1] = target: T1, wild-type androgen receptor (AR) (Homo sapiens, UniProt P10275); assay: AR binding inhibitory test (wild-type), radiolabeled mibolerone; conditions: 100 nM compound, 3 nM radiolabeled mibolerone, 4° C. 3 hr, read-out: Inhibitory rate (%) at 100 nM wild-type
T1 sequence (P10275 1-920): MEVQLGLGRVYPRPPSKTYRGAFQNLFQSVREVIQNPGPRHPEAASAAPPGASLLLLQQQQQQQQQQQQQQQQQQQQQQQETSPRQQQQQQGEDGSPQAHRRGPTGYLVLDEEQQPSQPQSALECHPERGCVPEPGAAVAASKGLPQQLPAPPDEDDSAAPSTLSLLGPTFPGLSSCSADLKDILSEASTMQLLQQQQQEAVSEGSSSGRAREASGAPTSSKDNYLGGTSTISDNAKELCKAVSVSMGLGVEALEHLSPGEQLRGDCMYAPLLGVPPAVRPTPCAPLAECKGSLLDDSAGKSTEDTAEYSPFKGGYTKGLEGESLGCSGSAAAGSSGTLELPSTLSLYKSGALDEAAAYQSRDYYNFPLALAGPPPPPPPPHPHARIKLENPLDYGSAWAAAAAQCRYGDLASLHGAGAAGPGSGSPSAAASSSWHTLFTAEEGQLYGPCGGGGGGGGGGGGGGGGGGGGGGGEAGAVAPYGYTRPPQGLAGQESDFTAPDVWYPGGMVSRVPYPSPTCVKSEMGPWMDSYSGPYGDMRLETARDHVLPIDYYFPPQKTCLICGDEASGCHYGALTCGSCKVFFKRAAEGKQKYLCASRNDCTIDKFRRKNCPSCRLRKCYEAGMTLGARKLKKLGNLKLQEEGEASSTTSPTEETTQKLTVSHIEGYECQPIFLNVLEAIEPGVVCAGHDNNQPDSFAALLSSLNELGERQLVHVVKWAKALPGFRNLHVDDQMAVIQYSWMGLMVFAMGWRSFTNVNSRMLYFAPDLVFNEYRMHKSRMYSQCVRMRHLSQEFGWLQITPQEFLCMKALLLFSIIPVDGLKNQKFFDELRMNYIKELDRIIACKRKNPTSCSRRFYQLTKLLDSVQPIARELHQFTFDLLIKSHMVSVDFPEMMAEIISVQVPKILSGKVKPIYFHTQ
Procedure: (§1) To a solution containing a wild-type androgen receptor (AR) or AR having LNCaP-type mutation were added 3 nM radiolabeled mibolerone and 100 nM compound. After the solution was incubated at 4° C. for 3 hr, B (Bound)/F (Free) separation was performed by the dextran/charcoal method. The label count of B was measured, and the inhibitory rate of the compound was calculated.

[2] = target: T2, AR having LNCaP-type mutation (Homo sapiens, UniProt P10275, T878A); assay: AR binding inhibitory test (LNCaP-type), radiolabeled mibolerone; conditions: 100 nM compound, 3 nM radiolabeled mibolerone, 4° C. 3 hr
T2 sequence (P10275 1-920 T878A): T1 sequence (P10275 1-920) with T878A
Procedure: as §1

AR (wild-type) [3] = target: T3, AR (wild-type) (Homo sapiens, UniProt P10275); assay: Reporter assay system using Cos7 cell, luciferase under MMTV-derived androgen responsive promoter; type: cell-based; conditions: 100 nM compound, 24 hr, luciferase activity with 1 μM 5α-dihydrotestosterone as 100
T3 construct: expressed in transfected cells; host or cells: Cos-7
T3 sequence (P10275 1-920): T1 sequence (P10275 1-920)
Procedure: (§2) Cos-7 (5,000,000 cells) were sown in a flask (150 cm^2), and cultured in a culture medium (DMEM medium containing 10% Dextran Charcoal (DCC)-Fetal Bovine Serum (FBS) and 2 mM glutamine) for 24 hr. A vector DNA containing AR gene, and a vector DNA prepared by binging luciferase gene at the downstream of an MMTV (Mouse Mammary Tumor Virus)-derived androgen responsive promoter were co-transfected by the liposome method. After culture for 2 hr, the cells were harvested, 10,000 cells were plated on a 96 well plate and cultured for 3 hr, after which 1 μM of 5α-dihydrotestosterone or 100 nM of a compound was added. After culture for 24 hr, luciferase activity was determined. The induction rate by the compound was determined with the luciferase activity induced by addition of 1 μM of 5α-dihydrotestosterone as 100.

AR (wild-type) [4] = target: T3, AR (wild-type); assay: Reporter assay system using Cos7 cell, luciferase under androgen responsive promoter of two tandem PSA promoter regions; type: cell-based; conditions: 100 nM compound, 24 hr, luciferase activity with 1 μM 5α-dihydrotestosterone as 100
Procedure: as §2, with “an” for “an MMTV (Mouse Mammary Tumor Virus)-derived”, “promoter prepared by ligating two PSA promoter regions in tandem” for “promoter”, “added thereto.” for “added.”

[5] = test system: human prostate cancer cell line LNCaP-FGC; assay: PSA production test in human prostate cancer cell line; type: cell-based; conditions: 3 days, vehicle as 0, 350 nM testosterone as 100, test compound final concentration 0.1-1000 nM (concentration not given)
Procedure: The human prostate cancer cell line LNCaP-FGC was plated on a 96 well plate at 5,000 cells/100 μL/well. The next day, a test compound (final concentration 0.1-1000 nM), or a vehicle (control) or testosterone (final concentration 0.35-350 nM) was added thereto, and the culture supernatant was recovered 3 days after the drug addition. The concentration of PSA (Prostate Specific Antigen) produced in an androgen-dependent manner in the culture supernatant was measured by ELISA. The PSA production promotion rate by the test compound was calculated with vehicle addition group as 0 and 350 nM testosterone addition group as 100.

[6] = Table 6, read-out: Inhibitory rate (%) at 100 nM LNcap-type
[7] = Table 3, read-out: Inhibitory rate (%) at 100 nM LNCaP-type

Row | SMILES | inhibition at 0.1 µM ([1]; Table 6) | inhibition at 0.1 µM [2, 6] | Induction rate (%) at 100 nM wild-type (AR (wild-type) [3]) | inhibition at 0.1 µM ([1]; Table 3) | inhibition at 0.1 µM [2, 7] | Induction rate (%) at 100 nM wild-type (AR (wild-type) [4]) | PSA production promotion rate (%) [5]
1 | C[C@H]1[C@@H](C(C)(C)O)CCN1c1ccc(C#N)c(Cl)c1F [Compound 53, 2-chloro-3-fluoro-4-[(2S,3S)-3-(1-hydroxy-1-methylethyl)-2-methylpyrrolidin-1-yl]benzonitrile] | 98% | 98% | 33% | – | – | – | –
2 | C[C@H]1[C@@H](C(C)(C)O)CCN1c1ccc(C#N)c(Cl)c1 [Compound 3, 2-chloro-4-[(2S,3S)-3-(1-hydroxy-1-methylethyl)-2-methylpyrrolidin-1-yl]benzonitrile] | – | – | – | 98% | 99% | 57% | 81%
3 | Cc1c(N2CC[C@H](C(C)(C)O)[C@@H]2C)ccc(C#N)c1Cl [Compound 2, 2-chloro-4-[(2S,3S)-3-(1-hydroxy-1-methylethyl)-2-methylpyrrolidin-1-yl]-3-methylbenzonitrile] | – | – | – | 99% | 99% | 71% | 103%
4 | CC(C)[C@H]1[C@@H](O)CCN1c1ccc(C#N)c(C(F)(F)F)c1 [Compound 82, 4-[(2S,3S)-3-hydroxy-2-isopropylpyrrolidin-1-yl]-2-(trifluoromethyl)benzonitrile] | 98% | 97% | 90% | – | – | – | –
5 | C[C@H]1[C@@H](C(C)(C)O)CCN1c1ccc(C#N)c(Cl)c1Cl [Compound 75, 2,3-dichloro-4-[(2S,3S)-3-(1-hydroxy-1-methylethyl)-2-methylpyrrolidin-1-yl]benzonitrile] | 99% | 99% | 60% | – | – | – | –
6 | C[C@H]1[C@@H](C(C)(C)O)CCN1c1ccc(C#N)c(Br)c1 [Compound 71, 2-bromo-4-[(2S,3S)-3-(1-hydroxy-1-methylethyl)-2-methylpyrrolidin-1-yl]benzonitrile] | 99% | 97% | 31% | – | – | – | –
7 | C[C@H]1[C@@H](C(C)(C)O)CCN1c1ccc(C#N)cc1C(F)(F)F [Compound 80, 4-[(2S,3S)-3-(1-hydroxy-1-methylethyl)-2-methylpyrrolidin-1-yl]-3-(trifluoromethyl)benzonitrile] | 97% | 95% | 22% | – | – | – | –

Source: patent US8592452B2, “Cyclic amine compound” (Takeda Pharmaceutical Company Limited, priority 2005, dated 2013)
